# Reference: publication PMC11053772, “Improved Chemical and Radiochemical Synthesis of Neuropeptide Y Y2 Receptor Antagonist N-Methyl-JNJ-31020028 and Preclinical Positron Emission Tomography Studies” (Pharmaceuticals, 2024)
# How the values were obtained:
# Y2 receptors = system: Y2 receptors; parameters: method as in PMID 19953226; conditions: cited from earlier work
# Y2 receptor = system: Y2 receptor; parameters: method as in PMID 24614224; conditions: living pigs; cited from earlier work
# [1] = In vivo PET/MRI biodistribution of the radiotracer in mice; parameters: species or system C57BL/6N mice; conditions: i.v., 30–50 min post-injection, mean ± SEM, n = 7
# Experimental: PET/MRI images of N-[^11C]Me-JNJ-31020028 and biodistribution studies were performed in healthy C57BL/6N mice. The radiotracer [^11C]2 injectable solutions were administered intravenously to the mice, previously anaesthetised, and the mice were put in the MicroPET scanner for PET imaging acquisition. The MRI acquisition was performed before injection due to the necessity of using equipment different from MicroPET.
# PET/MRI Imaging. PET/MRI acquisitions were performed at the Institute for Nuclear Sciences Applied to Health (ICNAS) animal facility. During both acquisitions, the animals (n = 7) were anaesthetised using 1.5–2% isoflurane, and vital signs, such as temperature and respiratory cycle, were monitored. The radiotracer was administered intravenously (i.v.) in a total injected activity of 12.0 ± 2.9 µCi/g. Mice were placed in a MicroPET scanner based on resistive plate chamber detectors (RPC-PET). […] Quantitative imaging processing was performed using PMOD (PMOD, v 3.6; PMOD Technologies, Zürich, Switzerland, RRID: SCR_016547). […] Standardised uptake values (SUVs) were calculated as [[total positron (β+ radioactivity) concentration in the VOI (Bq/mL)]/[total positron (β+ radioactivity) injected (Bq)/weight (g)]] […] The percentage injected dose per gram (%ID/g) was calculated through Equation (2). […]
# [2] = Ex vivo biodistribution by gamma counting one hour after i.v. injection; format: in vivo, C57BL/6N mice; conditions: mice, 1 h after i.v. injection
# Experimental: The ex vivo biodistribution studies were performed one hour after the intravenous injection of the [^11C]2 injectable solution. For these studies, transcardiac perfusion with saline was performed, eliminating blood traces from the organs. […] Urinary excretion also occurred, though less radioactivity was found in the urine (84.43 ± 59.41%ID/g). The small intestine (98.64 ± 25.57%ID/g) and liver (14.33 ± 6.39%ID/g) were the organs with major uptake of the radiotracer. The high uptake in the small intestine is explained by the high density of Y2 receptors that exist in this organ, while the uptake in the liver is related to the metabolization of the tracer. Moderately low uptake was found in the stomach (3.082 ± 0.7135%ID/g), large intestine (2.18 ± 0.21%ID/g) and kidneys (1.99 ± 0.49%ID/g).
# Biodistribution. In another cohort of animals (n = 5), ex vivo biodistribution (%ID/g of tissue) was performed by gamma counting through CRC®-55t well counter and CRC®-55tW radioisotope dose calibrator (Capintec, Ramsey, NJ, USA). Six regions of the brain were also isolated to characterise brain accumulation; the isolation of the specific brain regions was conducted following established protocols.
# [3] = mean ± SEM, n = 5, listed as [^11C]2
smiles,measurement,setting,value
"CCN(CC)C(=O)C(c1ccccc1)N1CCN(c2ccc(NC(=O)c3ccccc3-c3cccnc3)cc2F)CC1 (stereo not shown) [JNJ-31020028, N-(4-{4-[2-(diethylamino)-2-oxo-1-phenylethyl]piperazin1-yl}-3-fluorophenyl)-2-pyridin-3-ylbenzamide]",Affinity and selectivity towards the Y2 receptors,Y2 receptors,high affinity and selectivity
CCN(CC)C(=O)C(c1ccccc1)N1CCN(c2ccc(N([11CH3])C(=O)c3ccccc3-c3cccnc3)cc2F)CC1 (stereo not shown) [N-[^11C]Me-JNJ-31020028],Blood–brain barrier permeation,Y2 receptor,permeated the blood–brain barrier
same,Metabolization in the bloodstream,Y2 receptor,slow metabolization in the bloodstream
same,Uptake in the brain (in vivo PET),[1],0.5187 ± 0.08 %ID/g
same,Uptake in the gut (in vivo PET),[1],12.57 ± 1.27 %ID/g
same,Route of elimination,[2]; from uptake in bile,mainly eliminated through the hepatobiliary system
same,"Ex vivo biodistribution, small intestine","[2]; intestine wall, mean ± SEM, n = 5",98.64 ± 25.57 %ID/g
same,"Brain ex vivo biodistribution, amygdala","[2]; mean ± SEM, n = 5",0.9318 ± 0.08 %ID/g
same,"Brain ex vivo biodistribution, cerebellum","[2]; mean ± SEM, n = 5",0.646 ± 0.10 %ID/g
same,"Brain ex vivo biodistribution, hippocampus","[2]; mean ± SEM, n = 5",0.8976 ± 0.09 %ID/g
same,"Brain ex vivo biodistribution, hypothalamus","[2]; mean ± SEM, n = 5",1.03 ± 0.11 %ID/g
same,"Brain ex vivo biodistribution, pre-frontal cortex (PFC)","[2]; mean ± SEM, n = 5",0.636 ± 0.06 %ID/g
same,"Brain ex vivo biodistribution, striatum","[2]; mean ± SEM, n = 5",1.013 ± 0.11 %ID/g
same,"Ex vivo biodistribution, blood","[2]; mean ± SEM, n = 5",3.661 %ID/g
same,"Ex vivo biodistribution, kidney","[2]; mean ± SEM, n = 5",1.986 %ID/g
same,"Ex vivo biodistribution, large intestine","[2]; mean ± SEM, n = 5",2.18 ± 0.21 %ID/g
same,"Ex vivo biodistribution, liver","[2]; mean ± SEM, n = 5",14.33 ± 6.39 %ID/g
same,"Ex vivo biodistribution, urine","[2]; mean ± SEM, n = 5",84.43 ± 59.41 %ID/g
same,"Ex vivo biodistribution, bile",[2]; [3],250.1 ± 23.97 %ID/g
same,"Ex vivo biodistribution, blood",[2]; [3],3.66 ± 1.55 %ID/g
same,"Ex vivo biodistribution, kidney",[2]; [3],1.99 ± 0.49 %ID/g
same,"Ex vivo biodistribution, stomach",[2]; [3],3.082 ± 0.7135 %ID/g
same,"Ex vivo biodistribution, faeces",[2]; n = 5,3.149 %ID/g
same,"Ex vivo biodistribution, heart",[2]; n = 5,1.394 %ID/g
same,"Ex vivo biodistribution, lung",[2]; n = 5,0.5568 %ID/g
same,"Ex vivo biodistribution, muscle",[2]; n = 5,0.9318 %ID/g
same,"Ex vivo biodistribution, spleen",[2]; n = 5,1.504 %ID/g
same,"Ex vivo biodistribution, whole brain",[2]; n = 5,0.6362 %ID/g
